# Laboratory results taken from the METLIN SMRT retention time set (Domingo-Almenara et al. 2019).
# Experiment: gradient 5% acetonitrile 3 min, to 50% in 2 min, to 85% in 15 min, held 3 min, 100 µL/min
# Conditions: column: Zorbax Extend-C18 2.1 x 50 mm; eluents: water / acetonitrile, 0.1% formic acid
# Summary of the method: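 Pure standards were analyzed in mixtures of ~100 molecules using HPLC coupled to a quadrupole time-of-flight mass spectrometer, in both positive and negative ionization mode. Separation used a Zorbax Extend-C18 column (2.1 × 50 mm, 1.8 μm) at 100 μL/min, with water and acetonitrile each containing 0.1% formic acid. Dead and dwell volumes were 40 μL and 900 μL, and data were collected over 3 months. Retention time was read from computationally picked adduct peaks, each inspected manually.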
row,Compound,RP-LC retention time [s]
1,Cc1ccccc1NC(=O)NCCCn1c(C(F)(F)F)nc2cccnc21,761
2,Cc1cc(C)cc(NS(=O)(=O)c2cc(-c3[nH]ncc3C(=O)N3CCCCC3)oc2C)c1,807
3,CCc1ccc(NC(=O)N2CCCC(C)(C(=O)NCc3ccccc3C)C2)cc1 (configuration not stated),1040
4,COCCNC(=O)c1coc(NC(=O)c2cnccn2)n1,548
5,CC(=O)Nc1ccc(C2(C(=O)NCc3ccco3)CCC2)cc1,691
6,CC(=O)N1c2ccccc2CC1c1nc(C2CC2)no1 (configuration not stated),820
7,CN1C2CCCC1CC(NC(=O)c1nn(C)c3ccccc13)C2 (configuration not stated),640
8,CCCCC(CC)C(=O)Nc1nc(-c2ccc(C(C)C)cc2)cs1 (configuration not stated),1390
9,O=C(Cn1ccc2sccc2c1=O)NCc1ccc(F)cc1,694
10,O=C(Nc1ccc(N2CCOCC2)cc1)C1(CCO)CCN(c2ncccn2)C1 (configuration not stated),549
11,O=C(NCCCn1ncccc1=O)c1coc(NC(=O)c2cccs2)n1,589
12,Cc1cc(=O)n(CC(=O)Nc2cccc(F)c2)c(N2CCCC2)n1,634
13,CCCOC(=O)C1=C(C)NC2=C(C(=O)C(C(=O)OC)C(C)C2)C1c1ccc(F)cc1 (configuration not stated),958
14,COc1cccc(CNC(=O)c2cc(NC(C)=O)cc3nc(C)ccc23)c1OC,594
15,O=C(CCc1c(-c2ccc(Cl)cc2)nc2ccccn12)Nc1ccc(F)cc1,748
16,CCNC(=O)CCc1nc2ccccc2n(CC(=O)NCc2cccc(OC)c2OC)c1=O,1110
17,Cc1sc2ccn(C)c(=O)c2c1C(=O)NCc1cc(F)ccc1F,781
18,Cc1ccc(-c2cc(C(=O)NCCc3ccc(S(N)(=O)=O)cc3)c(C)[nH]2)cc1C,794
19,Cc1cccc(S(=O)(=O)Nc2cccn3ncnc23)c1,729
20,CS(=O)(=O)N1CCC(C(=O)NCC2(CO)CC2)CC1,536
21,COc1ccc(Cc2nc3nccc(-c4ccsc4)n3n2)cc1,897
22,COc1cccc2cc(C(=O)NC3C=CS(=O)(=O)C3)oc12 (configuration not stated),652
23,Cc1nc2cc(N3CCCC(C(=O)O)C3)cnc2nc1C (configuration not stated),604

row,Compound,RP-LC retention time [s]
1,Cc1ccc(-n2c(C)c(C)c3c(=O)n(CC(=O)N4CCc5ccccc54)cnc32)cc1,1040
2,COc1ccc(CC(=O)N2CCC3(CC2)NC(=O)c2ccc(F)cc2N3C)cc1,759
3,CSc1ccc(CNC(=O)c2ccc3ncnc(N4CCCC4)c3c2)cc1,669
4,Clc1ccc(C2Cn3nnc(-c4nc(-c5cccc(Cl)c5)no4)c3CO2)cc1 (configuration not stated),1310
5,CC(C)Cn1cc(S(=O)(=O)N2CCSCC2)c2cccnc21,969
6,CC(NC(=O)c1ccc2nc(-c3ccc(Cl)cc3)cn2c1)c1ccccn1 (configuration not stated),635
7,CC1CCC(NC(=O)C2CCN(C(=O)c3cc(-c4ccncc4)n[nH]3)CC2)CC1 (configuration not stated),624
8,CCCCn1cc(S(=O)(=O)N2CCN(c3ccccc3F)CC2)c2cccnc21,1190
9,Cn1nc(C(=O)N2CCCCC2)c2c1CCN(C(=O)CCC(=O)NC1CCCCC1)C2,681
10,Cc1ccc2nc(-c3c(F)cccc3Cl)c(Nc3ccccc3C)n2c1,777
11,COc1ccc(C(=O)N2CCc3ccc(C(=O)Nc4ccc5c(c4)OCO5)cc32)cc1,773
12,Cn1c(=O)n(CC(=O)N2CCOCC2)c(=O)c2cnc(-c3ccccc3)nc21,767
13,COc1ccc(NC(=O)N2C[C@@H](F)C[C@H]2C(=O)N2CCc3ccccc3C2)cc1F,797
14,CC(Cc1ccco1)NC(=O)c1cccn(C)c1=O (configuration not stated),649
15,COc1ccccc1N1CCN(c2nnc(-c3nnc(C)o3)c3ccccc23)CC1,889
16,CCCC(NC(=O)c1ccc(C(F)(F)F)cc1)C(=O)Nc1nc2ccccc2[nH]1 (configuration not stated),802
17,O=C1NC(c2cccc([N+](=O)[O-])c2)=CCN1c1ccccc1O,837
18,Cc1ccc(C)c(CNC(=O)c2nc3cccnc3n(CC(C)C)c2=O)c1,1060
19,O=C(NC1CCc2ccccc21)C1CCCN(c2ncnc3c2oc2ccccc23)C1 (configuration not stated),816
20,CC(C)OCCCNC(=O)CN1c2ccc(F)cc2-c2ccccc2S1(=O)=O,890
21,CC(=O)N1CCc2c(c(CNC(=O)c3cncn3C)nn2C)C1,558
22,CCOc1ccccc1NC(=O)CN1C(=O)CC(c2cccs2)=Nc2ccccc21,1050
23,Cc1ccc(C)c(NC(=O)NCC(c2cccnc2)c2cn(C)c3ccccc23)c1 (configuration not stated),733

row,Compound,RP-LC retention time [s]
1,Cc1ccc(C)c(NS(=O)(=O)c2cc3n(c2)CCCNC3=O)c1,663
2,CCn1cnc(S(=O)(=O)N2CCC(C(=O)NCc3ccc(OC(C)C)cc3)CC2)c1,749
3,CCc1ccccc1NC(=O)N1CC(n2cnnc2-c2ccccc2)C1,686
4,CN(C)c1ncncc1N1CCC(C(=O)NC2CC2)CC1,554
5,O=C(NC(c1ccccc1)c1nnc(N2CCCCC2)o1)C1CCCCC1 (configuration not stated),878
6,CCC(=O)N1CCc2c(C(=O)NC3CCCCCC3)cccc21,887
7,Cc1cc(C)n(Cc2ccc(C(=O)N3CCN(c4cc(=O)n(C(C)C)c(=O)n4C(C)C)CC3)o2)n1,772
8,Cc1cc(C)c2[nH]c3c(c(=O)c2c1)CN(CC(=O)Nc1ccc2c(c1)OCO2)CC3,626
9,CCC(C)CN(CC(=O)N1CCc2sccc2C1COc1ccc(F)cc1)C(=O)COC (configuration not stated),962
10,CO[C@H]1C(=O)N(C(C)C)[C@H]1C1CCN(S(=O)(=O)c2cccc(F)c2)CC1,860
11,CC(=O)c1cccc(NC(=O)Cn2cccc2-c2nc(-c3ccccc3)cs2)c1,1030
12,CCCCc1ccc(NC(=O)N2CCC(c3cc(N)on3)CC2)cc1,876
13,CC(NC(=O)CC1CCCCC1)C(=O)Nc1nc2ccccc2[nH]1 (configuration not stated),663
14,O=C(COc1ccccc1)N1CCCC(OCc2nc(C3CC3)no2)C1 (configuration not stated),610
15,COc1ccc(OC)c(NC(=O)Nc2c(-c3ccc(C)cc3)nc3ccccn23)c1,698
16,O=C(CCC1CCCN(S(=O)(=O)c2ccccc2)C1)NCC1CCCCC1 (configuration not stated),956
17,Cn1nc(CNC(=O)c2cccc(Cl)c2)c2ccccc21,938
18,CCOc1ccc(CCNc2nc(-c3ccc(OC)c(OC)c3)no2)cc1,967
19,CCc1ccc(NC(=O)N2CCCC2c2nc(-c3ccccc3OC)no2)cc1 (configuration not stated),976
20,Cc1ccc(CNC(=O)C2CCN(S(=O)(=O)c3ccc4c(c3)NC(=O)CO4)CC2)cc1,794
21,Cc1cccc(NC(=O)C2CC(=O)N(c3n[nH]c4cccc(F)c34)C2)c1C (configuration not stated),770
22,Cc1ccc(NC(=O)N(C)CC2CCOC2)cc1F (configuration not stated),722
23,CC(C)n1c(=O)oc2cc(-c3noc(/C=C/c4ccccc4)n3)ccc21,1200

row,Compound,RP-LC retention time [s]
1,CC1CC(=O)c2cnc(N3CCN(c4ccccn4)CC3)nc2C1 (configuration not stated),611
2,O=C(CN1CCN(C(=O)c2sc3ncccc3c2-n2cccc2)CC1)N1CCCC1,607
3,COc1ccc(C(=O)N2CCC3(C2)C(=O)N(C)c2ccccc23)cc1 (configuration not stated),743
4,CCS(=O)(=O)N1CC(=O)N(c2ccc(F)cc2C)C(C)(C(=O)NC2CCCCCC2)C1 (configuration not stated),925
5,Cn1cc(-c2ccncc2)cc1C(=O)NCc1ccc(Br)cc1,662
6,Cn1nc2c(c1NC(=O)c1ccc(Cl)s1)CCC2,724
7,O=C(c1c2c(nc3ccccc13)C(=O)N(C1CCCCC1)C2)N1CCN(c2ccccn2)CC1,643
8,CCc1ccc(NC(=O)NCCc2cn(CC(C)C)c3ncccc23)cc1,919
9,CC(=O)Nc1ccc2nc(-c3ccc(Cl)cc3)cc(OCC(N)=O)c2c1,621
10,CC(C)c1ccc2nc3ccc(C(=O)NCCN(C)C)cn3c(=O)c2c1,631
11,COc1cc(CNC(=O)c2cn3ccc(C)cc3n2)cc(OC)c1,632
12,CN1CCN(c2nc3ccccc3nc2Cl)CC1,650
13,CC(C)NC(=O)C1CCCCN1S(=O)(=O)c1ccc(Br)cc1 (configuration not stated),969
14,COCCN1C(=O)CCc2cc(NC(=O)c3ccc(Br)o3)ccc21,721
15,COc1ccccc1CN[C@H]1CCCN[C@H]1c1ccccc1,578
16,CCC(C)NC(=O)N1CCN(c2nc3ccccc3n(Cc3ccccc3)c2=O)CC1 (configuration not stated),981
17,O=C([C@H]1C[C@@H](F)CN1S(=O)(=O)c1cccc(C(F)(F)F)c1)N1CCOCC1,769
18,Cc1cc(NCCOCCO)n2nc(-c3ccc(Cl)cc3)c(C)c2n1,644
19,O=C(Nc1ccc(S(=O)(=O)N2CCc3ccccc32)cc1)c1ccc(Br)o1,960
20,Cc1ccc(Cl)cc1N1CCN(c2ccc3cc(S(=O)(=O)N4CCCC4)ccc3n2)CC1,1240
21,O=C(Cc1cccs1)Nc1ccc2c(c1)CCC(=O)N2,620
22,Cc1cc(-c2ccc(S(=O)(=O)N3CCC(C(=O)NCc4ccco4)CC3)o2)n[nH]1,733
23,Nc1nc(-c2ccc(Cl)cc2)nn1C(=O)c1ccc(Cl)cc1,1170
